The record followed here is patent US20230117034A1, “PYRAZOLOTRIAZINES” (Bayer Aktiengesellschaft, priority 2019, published 2023).

Experiment [1] concerns the target T1, CDK9/CycT1 (Homo sapiens, UniProt P50750).
T1 construct: Recombinant full-length His-tagged human CDK9 and CycT1; purchased Life Technologies PV4131; host or cells: insect cells
Description: CDK9/CycT1 high ATP kinase assay (TR-FRET, 2 mM ATP). Conditions: 2 mM ATP (high ATP); median; read-out: CDK9/CyclinT1, 2 mM ATP (high ATP), IC50 (median). Type of experiment: biochemical. The gist of the method:
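Full-length His-tagged human CDK9/CycT1 (insect cell, ~0.5 μg/mL) preincubated 15 min at 22 °C with compound in Tris pH 8.0, MgCl2, DTT buffer before reaction with biotinylated peptide substrate at high ATP (2 mM).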

Experiment [2] deals with T2, CDK12 (nuclear staining in CAL-120 cells) (Homo sapiens, UniProt Q9NYV4).
T2 construct: endogenous in cells; host or cells: CAL-120 human breast cancer cells (DSMZ ACC 459)
Description: CDK12 nuclear protein level: immunofluorescence/high content analysis (CAL-120). The class given is cell-based. The following applies: for DC50: CAL-120 cells, 24 h, immunofluorescence, 50% reduction of nuclear CDK12 staining intensity, median, read-out: CDK12 degradation IF, DC50- [mol/l] (median); for (IC50 CDK12 high ATP) to (Degradation DC50 CDK12) ratio: ratio of IC50 CDK12 high ATP kinase assay to DC50 CDK12 degradation (IF, CAL-120). The gist of the method:
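CAL-120 cells were treated with compound for 24 h at 37 °C, fixed with PFA and immunostained for CDK12. Nuclear CDK12 intensity was quantified by automated image analysis and normalized to DMSO and control. DC50 is the concentration giving 50% reduction of nuclear staining.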

T1 sequence (P50750 whole entry): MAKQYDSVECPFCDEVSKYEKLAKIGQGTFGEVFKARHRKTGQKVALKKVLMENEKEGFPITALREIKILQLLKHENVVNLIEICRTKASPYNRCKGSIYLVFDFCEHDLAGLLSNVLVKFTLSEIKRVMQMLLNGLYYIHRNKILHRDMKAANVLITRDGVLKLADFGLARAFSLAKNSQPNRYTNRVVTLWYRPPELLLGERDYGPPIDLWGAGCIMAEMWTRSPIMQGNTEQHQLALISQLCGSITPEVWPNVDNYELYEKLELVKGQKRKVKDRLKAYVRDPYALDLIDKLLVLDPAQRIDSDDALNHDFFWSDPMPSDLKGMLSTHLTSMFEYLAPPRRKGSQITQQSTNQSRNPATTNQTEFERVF
T1 sequence (O60563 whole entry partner): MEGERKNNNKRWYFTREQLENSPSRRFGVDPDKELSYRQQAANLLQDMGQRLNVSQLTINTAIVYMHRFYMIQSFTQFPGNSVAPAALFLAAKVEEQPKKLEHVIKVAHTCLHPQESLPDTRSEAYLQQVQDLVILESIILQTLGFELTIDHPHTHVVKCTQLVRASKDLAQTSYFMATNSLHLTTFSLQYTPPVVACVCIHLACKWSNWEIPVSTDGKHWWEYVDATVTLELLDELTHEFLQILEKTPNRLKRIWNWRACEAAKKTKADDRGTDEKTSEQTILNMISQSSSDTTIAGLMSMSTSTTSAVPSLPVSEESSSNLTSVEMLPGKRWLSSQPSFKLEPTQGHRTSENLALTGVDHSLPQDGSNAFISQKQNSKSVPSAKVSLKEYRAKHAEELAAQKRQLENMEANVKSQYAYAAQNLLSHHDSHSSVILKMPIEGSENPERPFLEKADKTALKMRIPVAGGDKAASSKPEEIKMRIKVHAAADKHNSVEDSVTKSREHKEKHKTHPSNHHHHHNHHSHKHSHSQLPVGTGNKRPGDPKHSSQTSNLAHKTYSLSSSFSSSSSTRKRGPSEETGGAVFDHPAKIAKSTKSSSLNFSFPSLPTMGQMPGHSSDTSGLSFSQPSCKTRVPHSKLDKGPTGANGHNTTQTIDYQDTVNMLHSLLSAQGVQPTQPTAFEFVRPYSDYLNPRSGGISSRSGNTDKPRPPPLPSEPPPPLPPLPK
T2 sequence (Q9NYV4 whole entry): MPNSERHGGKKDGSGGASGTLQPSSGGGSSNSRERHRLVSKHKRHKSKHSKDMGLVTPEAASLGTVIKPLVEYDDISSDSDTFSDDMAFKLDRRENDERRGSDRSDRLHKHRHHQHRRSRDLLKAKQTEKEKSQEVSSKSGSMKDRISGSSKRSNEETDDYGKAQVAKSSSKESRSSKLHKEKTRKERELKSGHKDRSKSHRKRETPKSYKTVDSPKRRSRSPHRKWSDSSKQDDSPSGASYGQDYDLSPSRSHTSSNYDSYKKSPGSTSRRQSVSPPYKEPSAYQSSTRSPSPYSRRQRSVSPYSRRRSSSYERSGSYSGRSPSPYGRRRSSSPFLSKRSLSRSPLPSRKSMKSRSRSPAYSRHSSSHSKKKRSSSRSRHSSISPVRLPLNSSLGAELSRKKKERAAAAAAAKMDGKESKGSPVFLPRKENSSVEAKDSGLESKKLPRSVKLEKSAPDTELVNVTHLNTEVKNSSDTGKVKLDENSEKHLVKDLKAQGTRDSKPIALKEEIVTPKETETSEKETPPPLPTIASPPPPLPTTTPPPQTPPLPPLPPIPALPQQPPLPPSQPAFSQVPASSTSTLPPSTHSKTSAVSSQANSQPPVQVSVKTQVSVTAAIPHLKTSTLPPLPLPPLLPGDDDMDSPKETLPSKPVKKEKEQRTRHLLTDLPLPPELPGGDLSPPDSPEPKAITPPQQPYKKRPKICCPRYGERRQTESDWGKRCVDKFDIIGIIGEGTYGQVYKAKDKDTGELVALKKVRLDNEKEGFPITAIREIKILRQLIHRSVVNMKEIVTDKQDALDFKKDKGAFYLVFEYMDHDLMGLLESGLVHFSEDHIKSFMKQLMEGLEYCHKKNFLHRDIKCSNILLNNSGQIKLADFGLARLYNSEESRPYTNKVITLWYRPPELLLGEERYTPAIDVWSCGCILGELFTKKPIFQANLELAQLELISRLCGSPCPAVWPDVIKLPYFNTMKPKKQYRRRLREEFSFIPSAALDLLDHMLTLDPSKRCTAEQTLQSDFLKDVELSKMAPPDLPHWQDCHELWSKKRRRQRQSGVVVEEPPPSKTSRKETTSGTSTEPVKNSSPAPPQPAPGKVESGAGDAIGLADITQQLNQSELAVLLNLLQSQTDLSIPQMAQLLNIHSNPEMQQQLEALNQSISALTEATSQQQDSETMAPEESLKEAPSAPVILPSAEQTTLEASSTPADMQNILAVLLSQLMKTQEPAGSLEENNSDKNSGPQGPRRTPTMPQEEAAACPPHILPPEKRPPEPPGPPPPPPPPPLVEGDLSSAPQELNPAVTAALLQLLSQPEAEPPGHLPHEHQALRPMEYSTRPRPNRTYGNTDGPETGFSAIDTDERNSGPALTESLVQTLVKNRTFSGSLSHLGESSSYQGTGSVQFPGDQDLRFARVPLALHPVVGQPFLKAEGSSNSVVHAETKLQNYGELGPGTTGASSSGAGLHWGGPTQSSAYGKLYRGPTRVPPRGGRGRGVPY
T2 sequence (O75909 whole entry partner): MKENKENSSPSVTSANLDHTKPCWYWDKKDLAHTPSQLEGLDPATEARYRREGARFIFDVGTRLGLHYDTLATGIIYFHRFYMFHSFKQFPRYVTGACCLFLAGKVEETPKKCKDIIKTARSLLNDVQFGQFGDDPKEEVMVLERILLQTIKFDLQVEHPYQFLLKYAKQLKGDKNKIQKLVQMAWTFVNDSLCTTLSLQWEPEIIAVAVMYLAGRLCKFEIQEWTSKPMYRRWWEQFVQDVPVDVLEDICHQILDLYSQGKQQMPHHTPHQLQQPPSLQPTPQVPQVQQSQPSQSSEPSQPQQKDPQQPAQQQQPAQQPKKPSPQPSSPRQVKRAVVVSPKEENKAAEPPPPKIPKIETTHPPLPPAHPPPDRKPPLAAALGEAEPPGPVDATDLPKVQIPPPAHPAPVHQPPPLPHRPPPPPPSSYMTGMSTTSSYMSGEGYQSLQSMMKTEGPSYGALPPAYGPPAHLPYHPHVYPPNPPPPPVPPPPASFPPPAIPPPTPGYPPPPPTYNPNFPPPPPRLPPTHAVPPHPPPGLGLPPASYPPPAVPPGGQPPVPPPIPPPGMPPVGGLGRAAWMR

In the case of `CN(CC(C)(C)O)c1nc(NCc2nc3ccccc3[nH]2)n2ncc(Br)c2n1` [Example 238, 1-[(4-{[(1H-benzimidazol-2-yl)methyl]amino}-8-bromopyrazolo[1,5-a][1,3,5]triazin-2-yl)(methyl)amino]-2-methylpropan-2-ol], the IC50 in experiment [1] was over 18700 nM. Further, in experiment [2], the DC50 turned out to be 6.49 nM and the “(IC50 CDK12 high ATP) to (Degradation DC50 CDK12) ratio” value stood at 276.
For `OCCNc1nc(NCc2nc3ccccc3[nH]2)n2ncc(Br)c2n1` [Example 228, 2-[(4-{[(1H-benzimidazol-2-yl)methyl]amino}-8-bromopyrazolo[1,5-a][1,3,5]triazin-2-yl)amino]ethan-1-ol], in that order: over 20000 nM, 47.1 nM and over 425.
Regarding `CN(C)[C@@H]1CCN(c2nc(NCc3nc4ccccc4[nH]3)n3ncc(Br)c3n2)C1` [Example 178, N-[(1H-benzimidazol-2-yl)methyl]-8-bromo-2-[(3R)-3-(dimethylamino)pyrrolidin-1-yl]pyrazolo[1,5-a][1,3,5]triazin-4-amine], the IC50 in experiment [1] is over 20000 nM. Further, in experiment [2], the DC50 amounted to 25.5 nM and the “(IC50 CDK12 high ATP) to (Degradation DC50 CDK12) ratio” value was over 783.
The like results for `Brc1cnn2c(NCc3nc4ccccc4[nH]3)nc(N3C[C@H]4CCCN[C@H]4C3)nc12` [Example 199, N-[(1H-benzimidazol-2-yl)methyl]-8-bromo-2-[(4aR, 7aR)-octahydro-6H-pyrrolo[3,4-b]pyridin-6-yl]pyrazolo[1,5-a][1,3,5]triazin-4-amine] were, in that order, over 20000 nM, 5.55 nM and 2661.
Regarding `COC(C)(C)CNc1nc(NCc2nc3ccccc3[nH]2)n2ncc(Br)c2n1` [Example 236, N4-(1H-benzimidazol-2-ylmethyl)-8-bromo-N2-(2-methoxy-2-methyl-propyl)pyrazolo[1,5-a][1,3,5]triazine-2,4-diamine], in experiment [1], the IC50 is over 20000 nM. In addition, the DC50 in experiment [2] stood at 7.18 nM.
As to `CN(C)C1CCN(c2nc(NCc3nc4ccccc4[nH]3)n3ncc(Br)c3n2)CC1` [Example 201, N-[(1H-benzimidazol-2-yl)methyl]-8-bromo-2-[4-(dimethylamino)piperidin-1-yl]pyrazolo[1,5-a][1,3,5]triazin-4-amine], the IC50 in experiment [1] is over 20000 nM. In experiment [2], the DC50 turned out to be 61.3 nM and the “(IC50 CDK12 high ATP) to (Degradation DC50 CDK12) ratio” value is reported as over 326.
For `Cc1ccc2[nH]c(CNc3nc(N4CCN(C)CC4)nc4c(C5CC5)cnn34)nc2c1` [Example 210, 8-cyclopropyl-N-[(5-methyl-1H-benzimidazol-2-yl)methyl]-2-(4-methylpiperazin-1-yl)pyrazolo[1,5-a][1,3,5]triazin-4-amine], in that order: over 20000 nM, 1.41 nM and over 14143.
For `COc1cccc2[nH]c(CNc3nc(N4CCOCC4)nc4c(C5CC5)cnn34)nc12` [Example 213, 8-cyclopropyl-N-[(4-methoxy-1H-benzimidazol-2-yl)methyl]-2-morpholino-pyrazolo[1,5-a][1,3,5]triazin-4-amine], in that order: over 20000 nM, 2.11 nM and 497.
For `CN(C)[C@H]1CCN(c2nc(NCc3nc4ccccc4[nH]3)n3ncc(Br)c3n2)C1` [Example 177, N-[(1H-benzimidazol-2-yl)methyl]-8-bromo-2-[(3S)-3-(dimethylamino)pyrrolidin-1-yl]pyrazolo[1,5-a][1,3,5]triazin-4-amine], in that order: over 20000 nM, 35.7 nM and over 561.
As for `Brc1cnn2c(NCc3nc4ccccc4[nH]3)nc(N3CC4CCC3CN4)nc12` (centres unmarked) [Example 220, N-(1H-benzimidazol-2-ylmethyl)-8-bromo-2-(2,5-diazabicyclo[2.2.2]octan-2-yl)pyrazolo[1,5-a][1,3,5]triazin-4-amine], the IC50 in experiment [1] is over 20000 nM. Besides, in experiment [2], the DC50 was determined as 4.21 nM and the “(IC50 CDK12 high ATP) to (Degradation DC50 CDK12) ratio” value worked out at 1318.
For `CN1CC2CN(c3nc(NCc4nc5ccccc5[nH]4)n4ncc(Br)c4n3)CC2C1` (centres unmarked) [Example 240, N-(1H-benzimidazol-2-ylmethyl)-8-bromo-2-(2-methyl-1,3,3a,4,6,6a-hexahydropyrrolo[3,4-c]pyrrol-5-yl)pyrazolo[1,5-a][1,3,5]triazin-4-amine], in that order: over 20000 nM, 5.56 nM and over 3596.
For `COc1cccc2[nH]c(CNc3nc(N4C[C@@H]5CCCN[C@@H]5C4)nc4c(C5CC5)cnn34)nc12` [Example 214, 8-cyclopropyl-N-[(4-methoxy-1H-benzimidazol-2-yl)methyl]-2-[(4aS,7aS)-octahydro-6H-pyrrolo[3,4-b]pyridin-6-yl]pyrazolo[1,5-a][1,3,5]triazin-4-amine], in that order: over 20000 nM, 3.92 nM and 2062.
With `CN1CC[C@@H]2CN(c3nc(NCc4nc5ccccc5[nH]4)n4ncc(Br)c4n3)C[C@@H]21` [Example 217, N-[(1H-benzimidazol-2-yl)methyl]-8-bromo-2-[(3aR,6aR)-1-methylhexahydropyrrolo[3,4-b]pyrrol-5 (1H)-yl]pyrazolo[1,5-a][1,3,5]triazin-4-amine], the IC50 in experiment [1] was over 20000 nM. In experiment [2], the DC50 was found to be 8.64 nM and the “(IC50 CDK12 high ATP) to (Degradation DC50 CDK12) ratio” value is listed as over 2315.
For the molecule `COCCNc1nc(NCc2nc3ccccc3[nH]2)n2ncc(Br)c2n1` [Example 230, N4-(1H-benzimidazol-2-ylmethyl)-8-bromo-N2-(2-methoxyethyl)pyrazolo[1,5-a][1,3,5]triazine-2,4-diamine], the IC50 in experiment [1] is over 20000 nM. Besides, in experiment [2], the DC50 stood at 66 nM and the “(IC50 CDK12 high ATP) to (Degradation DC50 CDK12) ratio” value is over 303.
The like results for `Brc1cnn2c(NCc3nc4ccccc4[nH]3)nc(N3CCC4(CCCN4)C3)nc12` (centres unmarked) [Example 215, N-(1H-benzimidazol-2-ylmethyl)-8-bromo-2-(1,7-diazaspiro[4.4]nonan-7-yl)pyrazolo[1,5-a][1,3,5]triazin-4-amine] were, in that order, over 20000 nM, 7.88 nM and over 2537.
The like results for `COc1ccc2[nH]c(CNc3nc(N4C[C@@H](C)N[C@@H](C)C4)nc4c(Br)cnn34)nc2c1` [Example 205, 8-bromo-2-[(3R,5S)-3,5-dimethylpiperazin-1-yl]-N-[(5-methoxy-1 H-benzimidazol-2-yl)methyl]pyrazolo[1,5-a][1,3,5]triazin-4-amine] were, in that order, over 20000 nM, 0.506 nM and 15749.
For `CN1C[C@H]2C[C@@H]1CN2c1nc(NCc2nc3ccccc3[nH]2)n2ncc(Br)c2n1` [Example 218, N-[(1H-benzimidazol-2-yl)methyl]-8-bromo-2-[(1R,4R)-5-methyl-2,5-diazabicyclo[2.2.1]heptan-2-yl]pyrazolo[1,5-a][1,3,5]triazin-4-amine], in that order: over 20000 nM, 10.5 nM and over 1900.
Take `Cc1ccc2[nH]c(CNc3nc(N4CCOCC4)nc4c(C5CC5)cnn34)nc2c1` [Example 193, 8-cyclopropyl-N-[(5-methyl-1H-benzimidazol-2-yl)methyl]-2-(morpholin-4-yl)pyrazolo[1,5-a][1,3,5]triazin-4-amine]: the IC50 in experiment [1] was over 20000 nM. In experiment [2], the DC50 was 2.68 nM and the “(IC50 CDK12 high ATP) to (Degradation DC50 CDK12) ratio” value was 653.
The like results for `Fc1ccc2[nH]c(CNc3nc(N4C[C@@H]5CCCN[C@@H]5C4)nc4c(C5CC5)cnn34)nc2c1F` [Example 171, 8-cyclopropyl-N-[(4,5-difluoro-1H-benzimidazol-2-yl)methyl]-2-[(4aS,7aS)-octahydro-6H-pyrrolo[3,4-b]pyridin-6-yl]pyrazolo[1,5-a][1,3,5]triazin-4-amine] were, in that order, over 20000 nM, 2 nM and 3278.
The like results for `O[C@H]1CCN(c2nc(NCc3nc4ccccc4[nH]3)n3ncc(Br)c3n2)C1` [Example 224, (3S)-1-(4-{[(1H-benzimidazol-2-yl)methyl]amino}-8-bromopyrazolo[1,5-a][1,3,5]triazin-2-yl)pyrrolidin-3-ol] were, in that order, over 20000 nM, 38.4 nM and 407.
The like results for `CN(CCO)c1nc(NCc2nc3ccccc3[nH]2)n2ncc(Br)c2n1` [Example 237, 2-[(4-{[(1H-benzimidazol-2-yl)methyl]amino}-8-bromopyrazolo[1,5-a][1,3,5]triazin-2-yl)(methyl)amino]ethan-1-ol] were, in that order, over 20000 nM, 128 nM and 58.
`CN1CC2CCC1CN2c1nc(NCc2nc3ccccc3[nH]2)n2ncc(Br)c2n1` (centres unmarked) [Example 221, N-(1H-benzimidazol-2-ylmethyl)-8-bromo-2-(5-methyl-2,5-diazabicyclo[2.2.2]octan-2-yl)pyrazolo[1,5-a][1,3,5]triazin-4-amine]: the IC50 in experiment [1] is over 20000 nM. In experiment [2], the DC50 was 4.68 nM and the “(IC50 CDK12 high ATP) to (Degradation DC50 CDK12) ratio” value stood at 1704.
